Reference: ChEMBL document CHEMBL1153574, “Novel topoisomerase I-targeting antitumor agents synthesized from the N,N,N-trimethylammonium derivative of ARC-111, 5H-2,3-dimethoxy-8,9-methylenedioxy-5-[(2-N,N,N-trimethylammonium)ethyl]dibenzo[c,h][1,6]naphthyridin-6-one iodide” (Eur J Med Chem, 2009)

Experiments:
[1] = target: T1, DNA topoisomerase 1 (Homo sapiens) (UniProt P11387); assay: Effect on human topoisomerase 1 expressed in Sf9 insect cells assessed as effective concentration required for 10% cleavage of plasmid DNA relative to topotecan
T1 sequence (whole entry): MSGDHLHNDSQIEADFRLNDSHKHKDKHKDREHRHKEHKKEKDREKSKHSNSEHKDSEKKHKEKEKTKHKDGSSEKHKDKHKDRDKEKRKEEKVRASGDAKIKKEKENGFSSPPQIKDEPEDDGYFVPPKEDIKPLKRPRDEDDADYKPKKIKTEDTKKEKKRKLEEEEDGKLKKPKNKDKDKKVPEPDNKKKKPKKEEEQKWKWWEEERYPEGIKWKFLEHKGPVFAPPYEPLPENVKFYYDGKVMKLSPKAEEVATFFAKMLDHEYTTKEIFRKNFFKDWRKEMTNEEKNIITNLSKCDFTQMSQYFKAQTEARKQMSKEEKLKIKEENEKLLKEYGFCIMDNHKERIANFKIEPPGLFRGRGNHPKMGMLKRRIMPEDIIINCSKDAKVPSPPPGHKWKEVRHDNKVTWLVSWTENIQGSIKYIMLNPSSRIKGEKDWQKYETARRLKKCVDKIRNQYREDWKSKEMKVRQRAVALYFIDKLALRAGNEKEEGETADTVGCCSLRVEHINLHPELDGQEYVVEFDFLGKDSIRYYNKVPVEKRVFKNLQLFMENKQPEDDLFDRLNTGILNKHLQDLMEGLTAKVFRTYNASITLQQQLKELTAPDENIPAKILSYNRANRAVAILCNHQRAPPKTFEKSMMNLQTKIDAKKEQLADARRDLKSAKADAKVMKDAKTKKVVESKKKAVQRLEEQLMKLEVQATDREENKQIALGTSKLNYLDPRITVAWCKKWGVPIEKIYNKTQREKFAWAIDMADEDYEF

[2] = Cytotoxicity against mouse P388/CPT45 cells after 4 days by MTT assay; type: functional, cell-based; conditions: P388CPT45, 96 h
[3] = Cytotoxicity against multidrug resistant human KBH5.0 cells overexpressing BCRP after 4 days by MTT assay; type: functional, cell-based; conditions: KBH5.0 cell, 96 h
[4] = Cytotoxicity against human CPT-K5 cells after 4 days by MTT assay; type: functional, cell-based; conditions: CPT-K5, 96 h
[5] = Cytotoxicity against human KB3-1 cells after 4 days after MTT assay; type: functional, cell-based; conditions: KB 3-1, 96 h
P388 = assay: Cytotoxicity against mouse P388 cells after 4 days by MTT assay; type: functional, cell-based; conditions: P388, 96 h
[6] = Cytotoxicity against human RPMI8402 cells after 4 days by MTT assay; type: functional, cell-based; conditions: RPMI 8402, 96 h
[7] = Cytotoxicity against multidrug resistant human KBV1 cells overexpressing MDR1 after 4 days by MTT assay; type: functional, cell-based; conditions: KB-V1, 96 h

CC[C@@]1(O)C(=O)OCc2c1cc1n(c2=O)Cc2cc3ccccc3nc2-1
Activity [1]: 0.2

COc1cc2c(=O)n(CCN(C)CCN(C)C)c3c4cc5c(cc4ncc3c2cc1OC)OCO5
IC50 [2]: 70 nM | IC50 [3]: 210 nM | IC50 [4]: 2200 nM | IC50 [5]: 50 nM | Activity [1]: 0.7 | IC50 (P388): 35 nM | IC50 [6]: 45 nM | IC50 [7]: 600 nM

COc1cc2c(=O)n(CCO)c3c4cc5c(cc4ncc3c2cc1OC)OCO5
IC50 [2]: 900 nM | IC50 [3]: 40 nM | IC50 [4]: > 10000 nM | IC50 [5]: 27 nM | Activity [1]: 4.7 | IC50 (P388): 30 nM | IC50 [6]: 30 nM | IC50 [7]: 40 nM

COc1cc2c(=O)n(CCN(C)CCO)c3c4cc5c(cc4ncc3c2cc1OC)OCO5
IC50 [2]: 330 nM | IC50 [3]: 50 nM | IC50 [4]: 580 nM | IC50 [5]: 6 nM | Activity [1]: 0.04 | IC50 (P388): 12 nM | IC50 [6]: 15 nM | IC50 [7]: 60 nM

COc1cc2c(=O)n(CCn3ccnc3)c3c4cc5c(cc4ncc3c2cc1OC)OCO5
IC50 [2]: > 10000 nM | IC50 [3]: 580 nM | IC50 [4]: > 10000 nM | IC50 [5]: 150 nM | Activity [1]: 2.3 | IC50 (P388): 200 nM | IC50 [6]: 210 nM | IC50 [7]: 1800 nM

CCN(CC)CCNCCn1c(=O)c2cc(OC)c(OC)cc2c2cnc3cc4c(cc3c21)OCO4
IC50 [2]: 350 nM | IC50 [3]: 300 nM | IC50 [4]: 9000 nM | IC50 [5]: 40 nM | Activity [1]: 5.2 | IC50 (P388): 230 nM | IC50 [6]: 150 nM | IC50 [7]: 1200 nM

COc1cc2c(=O)n(CCNCCN(C)C)c3c4cc5c(cc4ncc3c2cc1OC)OCO5
IC50 [2]: 340 nM | IC50 [3]: 750 nM | IC50 [4]: 2600 nM | IC50 [5]: 60 nM | Activity [1]: 6.4 | IC50 (P388): 75 nM | IC50 [6]: 140 nM | IC50 [7]: 3400 nM

COc1cc2c(=O)n(CCNC3CC3)c3c4cc5c(cc4ncc3c2cc1OC)OCO5
IC50 [2]: 110 nM | IC50 [3]: 8 nM | IC50 [4]: 300 nM | IC50 [5]: 4 nM | Activity [1]: 0.3 | IC50 (P388): 9 nM | IC50 [6]: 10 nM | IC50 [7]: 40 nM

COc1cc2c(=O)n(CCNC(CO)(CO)CO)c3c4cc5c(cc4ncc3c2cc1OC)OCO5
IC50 [2]: 3500 nM | IC50 [3]: 1800 nM | IC50 [4]: 7000 nM | IC50 [5]: 250 nM | Activity [1]: 2 | IC50 (P388): 330 nM | IC50 [6]: 330 nM | IC50 [7]: 1800 nM

COc1cc2c(=O)n(CCOC(=O)CN(C)C)c3c4cc5c(cc4ncc3c2cc1OC)OCO5
IC50 [2]: 390 nM | IC50 [3]: 50 nM | IC50 [4]: 4600 nM | IC50 [5]: 32 nM | Activity [1]: 0.3 | IC50 (P388): 27 nM | IC50 [6]: 30 nM | IC50 [7]: 35 nM

COc1cc2c(=O)n(CCn3ccnn3)c3c4cc5c(cc4ncc3c2cc1OC)OCO5
IC50 [2]: > 10000 nM | IC50 [3]: 6000 nM | IC50 [4]: > 10000 nM | IC50 [5]: 700 nM | Activity [1]: > 10 | IC50 (P388): 4400 nM | IC50 [6]: 3500 nM | IC50 [7]: 10000 nM

COc1cc2c(=O)n(CCNC(CO)CO)c3c4cc5c(cc4ncc3c2cc1OC)OCO5
IC50 [3]: 750 nM | IC50 [4]: > 10000 nM | IC50 [5]: 26 nM | Activity [1]: 0.2 | IC50 (P388): 80 nM | IC50 [6]: 54 nM | IC50 [7]: 2000 nM

COc1cc2c(=O)n(CCN(C)C)c3c4cc5c(cc4ncc3c2cc1OC)OCO5
IC50 [5]: 5 nM | Activity [1]: 0.3 | IC50 [7]: 5 nM

COc1cc2c(=O)n(CCN(CCO)CCO)c3c4cc5c(cc4ncc3c2cc1OC)OCO5
IC50 [2]: 250 nM | IC50 [3]: 280 nM | IC50 [4]: 320 nM | IC50 [5]: 23 nM | Activity [1]: 0.48 | IC50 (P388): 30 nM | IC50 [6]: 40 nM | IC50 [7]: 350 nM
